In patent US7101875B2, “Methods for treating arthritic disorders” (Wyeth, priority 2001, dated 2006):

How the values were obtained:
cPLA2 = molecular target: T1, cPLA2 (Homo sapiens, UniProt P47712); assay: Coumarine Assay (hydrolysis of 7-hydroxycoumarinyl 6-heptenoate by cPLA2, fluorometric); assay type: biochemical; settings: 60 μM 7-hydroxycoumarinyl 6-heptenoate substrate, 4 μg cPLA2, pH 7.5, excitation 360 nm / emission 460 nm; read-out: Coumarin IC50
T1 sequence (P47712 1-749): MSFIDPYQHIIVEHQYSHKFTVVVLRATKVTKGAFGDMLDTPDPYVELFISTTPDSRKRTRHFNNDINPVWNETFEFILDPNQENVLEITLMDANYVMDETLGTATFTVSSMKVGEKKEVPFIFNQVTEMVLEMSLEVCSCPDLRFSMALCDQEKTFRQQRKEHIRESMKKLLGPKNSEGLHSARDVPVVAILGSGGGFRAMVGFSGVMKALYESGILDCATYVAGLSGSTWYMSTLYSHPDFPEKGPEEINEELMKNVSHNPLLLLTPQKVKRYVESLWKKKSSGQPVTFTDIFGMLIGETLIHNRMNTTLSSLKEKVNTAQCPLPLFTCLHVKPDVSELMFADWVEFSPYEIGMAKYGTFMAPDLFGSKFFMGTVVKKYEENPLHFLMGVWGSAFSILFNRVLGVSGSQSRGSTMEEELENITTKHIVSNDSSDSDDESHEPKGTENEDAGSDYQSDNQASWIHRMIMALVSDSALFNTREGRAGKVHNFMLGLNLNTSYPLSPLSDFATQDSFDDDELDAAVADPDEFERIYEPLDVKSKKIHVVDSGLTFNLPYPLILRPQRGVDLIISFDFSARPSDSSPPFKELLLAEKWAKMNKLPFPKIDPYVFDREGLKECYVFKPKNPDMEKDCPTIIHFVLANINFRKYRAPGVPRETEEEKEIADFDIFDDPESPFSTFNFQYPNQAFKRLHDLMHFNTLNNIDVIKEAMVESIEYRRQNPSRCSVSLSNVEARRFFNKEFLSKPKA
Experimental: Inhibitors were mixed with 200 μL assay buffer (80 mM Heped, pH 7.5, 1 mM EDTA) containing 60 μM 7-hydroxycoumarinyl 6-heptenoate. The reaction was initiated by adding 4 μg cPLA2 in 50 μL assay buffer. Hydrolysis of the 7-hydroxycounarimyl 6-heptenoate ester was monitored in a fluorometer by exciting at 360 nm and monitoring emission at 460 nm. Enzyme activity is proportional to the increase in emission at 460 nm per minute. In the presence of a cPLA2 inhibitor, the rate of increase is less.

## 2-{2-[1-Benzhydryl-5-chloro-2-(2-phenylmethanesulfonylamino-ethyl)-1H-indol-3-yl]-ethoxy}-benzoic acid [Example 283]
cPLA2
  IC50: 500 nM

## 4-[2-(1-benzhydryl-5-chloro-2-{2-[({2-[(3R,5S)-3,5-dimethylmorpholin-4-yl]ethyl}sulfonyl)amino]ethyl}-1H-indol-3-yl)ethoxy]benzoic acid [Example 250]
cPLA2
  IC50: 2100 nM

## 4-{2-[1-Benzhydryl-5-chloro-2-{2-[({2-trifluoromethylsulfonylbenzene}-sulfonyl)amino]ethyl}-1H-indol-3-yl)propyl]benzoic acid [Example 208]
cPLA2
  IC50: 240 nM

## 4-{2-[1-benzhydryl-5-chloro-2-(2-{[(2,6-dimethylbenzyl)sulfonyl]amino}ethyl)-1H-indol-3-yl]ethoxy}benzoic acid [Example 279]
cPLA2
  IC50: 160 nM

## Nc1ccccc1CS(=O)(=O)NCCc1cc(OCCc2cn(C(c3ccccc3)c3ccccc3)c3ccc(Cl)cc23)ccc1C(=O)O [Example 16, 2-(2-{[(2-Aminobenzyl)sulfonyl]amino}ethyl)-4-{2-[1-benzhydryl-5-chloro-1H-indol-3-yl]ethoxy}benzoic acid]
cPLA2
  IC50: 980 nM

## CC(Cc1ccc(C(=O)O)cc1)c1c(CCNS(=O)(=O)Cc2ccccc2[N+](=O)[O-])n(C(c2ccccc2)c2ccccc2)c2ccc(Cl)cc12 (stereo not drawn) [Example 56, 4-{2-[1-Benzhydryl-5-chloro-2-{2-[({2-nitrobenzyl}-sulfonyl)amino]ethyl}-1H-indol-3-yl)propyl]benzoic acid]
cPLA2
  IC50: 130 nM

## O=C(O)c1ccc(OCCc2c(CCNS(=O)(=O)Cc3ccc(Cl)c(Cl)n3)n(C(c3ccccc3)c3ccccc3)c3ccc(Cl)cc23)cc1 [Example 76]
cPLA2
  IC50: 400 nM

## COc1ccccc1SCS(=O)(=O)NCCc1c(CCOc2ccc(C(=O)O)cc2)c2cc(Cl)ccc2n1C(c1ccccc1)c1ccccc1 [Example 83]
cPLA2
  IC50: 450 nM

## O=C(O)c1ccc(OCCc2c(CCNS(=O)(=O)Cc3ccc(Cl)c(Cl)c3)n(C(c3ccccc3)c3ccccc3)c3ccc(Cl)cc23)cc1F [Example 296, 4-{2-[1-benzhydryl-5-chloro-2-(2-{[(3,4-dichlorobenzyl)sulfonyl]amino}ethyl)-1H-indol-3-yl]ethoxy}-2-fluorobenzoic acid]
other
  melting point: 117 to 119 °C

## O=C(O)c1ccc(OCCc2c(CCNS(=O)(=O)Cc3ccccc3Cl)n(C(c3ccccc3)c3ccccc3)c3ccc(Cl)cc23)cc1F [Example 297, 4-{2-[1-benzhydryl-5-chloro-2-(2-{[(2-chlorobenzyl)sulfonyl]amino}ethyl)-1H-indol-3-yl]ethoxy}-2-fluorobenzoic acid]
other
  melting point: 132 to 135 °C

## CC(C)(Cc1ccc(S(=O)(=O)CCc2c(CCNS(=O)(=O)Cc3ccc(Cl)c(Cl)c3)n(C(c3ccccc3)c3ccccc3)c3ccc(Cl)cc23)cc1)C(=O)O [Example 298, 3-[4-({2-[1-benzhydryl-5-chloro-2-(2-{[(3,4-dichlorobenzyl)sulfonyl]amino}ethyl)-1H-indol-3-yl]ethyl}sulfonyl)phenyl]-2,2-dimethylpropanoic acid]
other
  melting point: 207 to 208 °C

## CC(C)Oc1cc(OCCc2c(CCNS(=O)(=O)Cc3ccc(Cl)c(Cl)c3)n(C(c3ccccc3)c3ccccc3)c3ccc(Cl)cc23)ccc1C(=O)O [Example 300, 4-{2-[1-benzhydryl-5-chloro-2-(2-{[(3,4-dichlorobenzyl)sulfonyl]amino}ethyl)-1H-indol-3-yl]ethoxy}-2-isopropoxybenzoic acid]
cPLA2
  IC50: > 2000 nM
